Experimental data taken from ChEMBL document CHEMBL6109120, “Discovery of Novel SIK2/3 Inhibitors for the Potential Treatment of MEF2C+ Acute Myeloid Leukemia (AML)” (J Med Chem, 2025).
Each block holds one compound with its values, some of them ahead of it.

Key:
[1] = biological target: Tyrosine-protein kinase Lck (Homo sapiens, UniProt P06239); experiment: Binding affinity to human LCK by KINOMEscan assay
[2] = biological target: Serine/threonine-protein kinase SIK1 (Homo sapiens, UniProt P57059); experiment: Inhibition of human SIK1 (02 to 131) assessed as luminescence signal using AMARAtide/ATP as substrate measured after 120 mins by microplate reader
Sequence of Serine/threonine-protein kinase SIK1 (P57059 whole entry): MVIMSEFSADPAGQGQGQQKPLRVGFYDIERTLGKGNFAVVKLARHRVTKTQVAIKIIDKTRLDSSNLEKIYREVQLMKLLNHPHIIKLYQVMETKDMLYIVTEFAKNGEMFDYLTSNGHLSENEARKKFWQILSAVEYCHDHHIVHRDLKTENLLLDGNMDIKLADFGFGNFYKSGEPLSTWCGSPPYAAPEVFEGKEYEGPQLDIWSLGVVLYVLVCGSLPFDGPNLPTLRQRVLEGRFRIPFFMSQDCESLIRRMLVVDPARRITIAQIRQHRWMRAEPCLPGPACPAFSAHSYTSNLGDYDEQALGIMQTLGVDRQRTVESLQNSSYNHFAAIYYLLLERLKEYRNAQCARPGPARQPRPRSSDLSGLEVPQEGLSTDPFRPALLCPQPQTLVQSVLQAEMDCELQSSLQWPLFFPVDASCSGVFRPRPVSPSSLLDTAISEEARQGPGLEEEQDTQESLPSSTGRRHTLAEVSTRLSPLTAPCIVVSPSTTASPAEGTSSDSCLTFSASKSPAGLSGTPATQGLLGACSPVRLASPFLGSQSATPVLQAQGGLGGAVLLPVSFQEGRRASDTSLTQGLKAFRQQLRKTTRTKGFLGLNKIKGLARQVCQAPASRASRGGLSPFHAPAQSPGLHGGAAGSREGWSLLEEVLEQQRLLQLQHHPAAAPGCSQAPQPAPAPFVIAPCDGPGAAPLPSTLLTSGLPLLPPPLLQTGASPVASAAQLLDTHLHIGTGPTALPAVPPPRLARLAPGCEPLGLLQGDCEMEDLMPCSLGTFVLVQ

[3] = biological target: Serine/threonine-protein kinase SIK2 (Homo sapiens, UniProt Q9H0K1); experiment: Inhibition of recombinant full length human SIK2 assessed as luminescence signal using AMARAtide/ATP as substrate measured after 120 mins by microplate reader
Sequence of Serine/threonine-protein kinase SIK2 (Q9H0K1 whole entry): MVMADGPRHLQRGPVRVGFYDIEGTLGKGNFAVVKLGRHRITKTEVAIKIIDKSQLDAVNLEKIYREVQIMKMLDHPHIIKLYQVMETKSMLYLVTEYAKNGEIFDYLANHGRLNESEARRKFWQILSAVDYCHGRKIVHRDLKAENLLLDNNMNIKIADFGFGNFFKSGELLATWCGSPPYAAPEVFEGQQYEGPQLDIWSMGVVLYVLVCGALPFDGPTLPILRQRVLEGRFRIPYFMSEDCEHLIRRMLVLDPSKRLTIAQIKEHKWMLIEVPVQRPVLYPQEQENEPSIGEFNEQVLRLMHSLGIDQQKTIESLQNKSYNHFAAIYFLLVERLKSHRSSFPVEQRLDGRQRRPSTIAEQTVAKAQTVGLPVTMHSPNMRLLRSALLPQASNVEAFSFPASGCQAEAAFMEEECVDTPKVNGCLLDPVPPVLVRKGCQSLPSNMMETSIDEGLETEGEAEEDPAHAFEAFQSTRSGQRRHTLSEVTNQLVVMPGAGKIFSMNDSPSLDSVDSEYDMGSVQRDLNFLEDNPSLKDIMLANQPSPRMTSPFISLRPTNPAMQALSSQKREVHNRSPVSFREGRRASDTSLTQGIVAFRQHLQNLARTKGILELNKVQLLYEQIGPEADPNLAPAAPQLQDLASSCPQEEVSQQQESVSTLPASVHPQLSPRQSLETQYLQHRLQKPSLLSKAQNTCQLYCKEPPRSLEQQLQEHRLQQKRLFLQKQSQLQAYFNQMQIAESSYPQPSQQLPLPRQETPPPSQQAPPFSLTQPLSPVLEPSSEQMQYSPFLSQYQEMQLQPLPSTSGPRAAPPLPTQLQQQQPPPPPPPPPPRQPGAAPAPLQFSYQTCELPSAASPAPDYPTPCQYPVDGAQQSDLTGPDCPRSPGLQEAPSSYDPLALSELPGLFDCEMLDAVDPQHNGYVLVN

[4] = biological target: Serine/threonine-protein kinase SIK3 (Homo sapiens, UniProt Q9Y2K2); experiment: Inhibition of recombinant human SIK3 assessed as luminescence signal using AMARAtide/ATP as substrate measured after 120 mins by microplate reader
Sequence of Serine/threonine-protein kinase SIK3 (Q9Y2K2 whole entry): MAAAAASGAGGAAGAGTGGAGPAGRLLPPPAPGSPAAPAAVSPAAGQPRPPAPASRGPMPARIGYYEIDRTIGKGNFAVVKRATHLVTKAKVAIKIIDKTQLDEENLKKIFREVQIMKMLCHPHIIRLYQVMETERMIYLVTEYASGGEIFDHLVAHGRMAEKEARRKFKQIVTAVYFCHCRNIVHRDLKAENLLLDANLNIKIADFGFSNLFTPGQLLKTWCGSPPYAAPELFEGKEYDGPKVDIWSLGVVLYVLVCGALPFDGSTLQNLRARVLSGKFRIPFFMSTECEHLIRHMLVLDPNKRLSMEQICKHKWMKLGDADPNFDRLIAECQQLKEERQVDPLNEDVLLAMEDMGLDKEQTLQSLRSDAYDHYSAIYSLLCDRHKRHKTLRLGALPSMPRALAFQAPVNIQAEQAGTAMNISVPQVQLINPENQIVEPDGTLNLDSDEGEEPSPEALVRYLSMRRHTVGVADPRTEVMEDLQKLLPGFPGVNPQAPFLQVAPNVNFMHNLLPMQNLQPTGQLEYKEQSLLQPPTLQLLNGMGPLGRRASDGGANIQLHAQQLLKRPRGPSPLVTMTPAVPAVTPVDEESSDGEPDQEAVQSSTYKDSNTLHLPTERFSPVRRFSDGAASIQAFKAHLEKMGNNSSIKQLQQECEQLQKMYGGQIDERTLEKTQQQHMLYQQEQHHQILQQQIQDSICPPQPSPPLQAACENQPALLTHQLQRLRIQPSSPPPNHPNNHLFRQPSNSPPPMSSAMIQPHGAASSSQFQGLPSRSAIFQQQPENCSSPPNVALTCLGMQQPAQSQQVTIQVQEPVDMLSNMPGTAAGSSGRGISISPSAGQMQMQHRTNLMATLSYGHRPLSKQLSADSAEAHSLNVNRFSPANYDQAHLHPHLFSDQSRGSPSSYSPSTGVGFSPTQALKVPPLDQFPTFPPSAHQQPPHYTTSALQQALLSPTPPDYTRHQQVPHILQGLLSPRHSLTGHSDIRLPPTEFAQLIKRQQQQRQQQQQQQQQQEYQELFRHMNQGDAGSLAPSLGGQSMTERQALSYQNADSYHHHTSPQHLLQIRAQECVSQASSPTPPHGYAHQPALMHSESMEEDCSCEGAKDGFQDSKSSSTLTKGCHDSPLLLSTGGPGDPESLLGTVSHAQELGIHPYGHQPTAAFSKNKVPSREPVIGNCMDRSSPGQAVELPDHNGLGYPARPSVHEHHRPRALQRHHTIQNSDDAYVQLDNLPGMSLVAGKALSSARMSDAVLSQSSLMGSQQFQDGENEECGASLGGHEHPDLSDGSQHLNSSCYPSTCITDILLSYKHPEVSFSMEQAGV

[5] = Binding affinity to human ABL by KINOMEscan assay

Sequence of Tyrosine-protein kinase Lck (P06239 whole entry): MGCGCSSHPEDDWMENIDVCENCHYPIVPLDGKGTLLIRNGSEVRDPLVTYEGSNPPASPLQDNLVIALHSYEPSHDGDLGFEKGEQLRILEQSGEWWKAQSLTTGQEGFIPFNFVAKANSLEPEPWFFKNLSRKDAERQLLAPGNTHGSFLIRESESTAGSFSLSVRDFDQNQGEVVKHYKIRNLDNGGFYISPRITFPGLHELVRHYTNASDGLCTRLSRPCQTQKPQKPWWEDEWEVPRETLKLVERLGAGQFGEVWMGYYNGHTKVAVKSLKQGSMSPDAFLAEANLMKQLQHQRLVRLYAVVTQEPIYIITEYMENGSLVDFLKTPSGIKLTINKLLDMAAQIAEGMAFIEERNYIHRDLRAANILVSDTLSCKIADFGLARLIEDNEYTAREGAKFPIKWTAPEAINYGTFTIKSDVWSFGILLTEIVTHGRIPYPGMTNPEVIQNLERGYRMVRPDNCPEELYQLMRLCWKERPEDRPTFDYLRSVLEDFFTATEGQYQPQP

IC50 [1]: 2.7 nM
Structure (SMILES): Cc1cc(-c2cc(O)ccc2Cl)cc2nnc(Nc3ccc(OCCN4CCCC4)cc3)nc12

IC50 [2]: 118 nM
IC50 [3]: 4.9 nM
IC50 [4]: 5.7 nM
Structure (SMILES): COc1cc(-c2cc(-c3cnn(C4CCOCC4)c3)cnc2N)cc2c1C(=O)N(CC#N)CC2

IC50 [3]: 39 nM
Structure (SMILES): COc1cc(-c2cc(-c3cnn(S(C)(=O)=O)c3)cnc2N)cc2c1C(=O)N(CC(F)(F)F)CC2

IC50 [5]: 26.8 nM
Structure (SMILES): CNC(=O)c1cc(Oc2ccc(NC(=O)Nc3cc(C(C)(C)C)nn3-c3ccc4ncccc4c3)c(F)c2)ccn1 [REBASTINIB]
